Reference: patent US7060733B2, “Methods for treating pancreatitis with curcumin compounds and inhibitors of reactive oxygen species” (The Regents of the University of California, priority 2002, dated 2006)
“Also recorded” adds a separate entry of the source.

How the values were obtained:
trypsin = assay: Trypsin activation assay in pancreatic tissue homogenates; format: in vivo, rat; settings: for inhibition of intrapancreatic trypsin activation / active trypsin versus pancreatitis without curcumin: rat
Description: Pancreatic tissue homogenates were prepared by methods known in the art. See Gukovskaya A S, et al. (2002); Gukovsky I, et al. (1998); Sandoval D, et al. (1996) Gastroenterology 111:1081–1091; and Vaquero E, et al. (2001), which are herein incorporated by reference. Active trypsin was measured in the pancreatic tissue homogenates by using a specific substrate, Boc-GLn-Ala-Arg-A MC (Bachem, Torrance, Calif.). See Kawabata S. et al. (1988) Eur. J. Biochem. 172:17–25, which is herein incorporated by reference. Cleavage of the substrate by trypsin releases 7-amino-4-methylcoumarin (AMC), which emits fluorescence at 440 nm with excitation at 380 nm. Trypsin activity in each sample was determined using a standard curve for purified trypsin.
Specifically, about ⅓ of rat pancreas was homogenized in 2 ml ice-cold buffer A (5 mM MES, pH 6.5; 1 mM MgSO4, 250 mM sucrose). Then 2 ml of buffer B (50 mM Tris, pH 8.0; 150 mM NaCl, 1 mM CaCl2, 0.1 mg/ml BSA) was mixed with 25 μl of the homogenate and kept on ice. Then 2 μl of 20 mM substrate solution (20 mM Boc-Gln-Ala-Arg-AMC.HCl in DMSO) was added to start the reaction. The sample was mixed well and incubated at 37° C. The reaction product was measured with a spectrofluorimeter for 20 minutes at ex=380 nm; em=440 nm.

NF-κB [1] = assay: EMSA for NF-κB on nuclear extracts from pancreatic tissue; format: in vivo, rat; settings: for NF-κB activation in the pancreas: rat
Description: Specifically, aliquots of nuclear extracts with equal amounts of protein (about 2 to about 10 mg) were mixed in 20 μl reactions with a buffer containing 10 mM HEPES (pH 7.8), 50 mM KCl, 0.1 mM EDTA, 1 mM DTT, 10% (vol/vol) glycerol, and 3 μg of poly(dI-dC).
The samples were electrophoresed at room temperature in 0.5×TBE buffer (1× TBE: 89 mM Tris base, 89 mM boric acid, 2 mM EDTA) on a non-denaturing 4.5% polyacrylamide gel at 200 V. The gels were dried and directly analyzed in the PhosphorImager (Molecular Dynamics, Sunnyvale, Calif.).
Nuclear protein extracts were prepared by methods known in the art. […] Briefly, samples of pancreatic tissue or isolated acini were rinsed in ice-cold PBS and homogenized in hypotonic Buffer A (20 mM β-glycerophosphate, 10 mM HEPES, pH 7.6, 1.5 mM MgCl2, 10 mM KCl, 10 mM Na2MoO4, 0.1 mM Na3VO4, 1 mM dithiothreitol (DTT), 1 mM phenylmethylsulfonyl fluoride (PMSF), 5 μg/ml each of protease inhibitors pepstatin, leupeptin, chymostatin, antipain and aprotinin). After incubating on ice for about 20 to about 25 minutes, the nonionic detergent Igepal CA-630 (Sigma, St. Louis, Mo.) was added to a final concentration of 0.3 to 0.4% (v/v), followed by an additional incubation on ice for about 1 to about 2 minutes. The crude nuclear pellet was collected by microcentrifugation for 30 seconds. The supernatant (cytosolic protein) was removed, and the nuclear pellet was resuspended in the high-salt buffer C (25% glycerol, 20 mM β-glycerophosphate, 10 mM HEPES, 1.5 mM MgCl2, 420 mM NaCl, 0.2 mM EDTA, 10 mM Na2MoO4, 0.1 mM Na3VO4, 1 mM DTT, 1 mM PMSF, 5 μg/ml each of protease inhibitors pepstatin, leupeptin, chymostatin, antipain and aprotinin. After rotating at 4° C. for up to 1 hour, nuclear membranes were pelleted by microcentrifugation for 10 minutes, and the clear supernatant (nuclear extract) was aliquoted and stored at −80° C. Protein concentration in the nuclear extract was determined by the Bio-Rad protein assay (Bio-Rad Laboratories, Hercules, Calif.).

IκBα and IκBβ = assay: Western blot of IκBα and IκBβ in cytosolic extracts from pancreatic tissue; format: in vivo, rat
Description: IκBα and IκBβ levels were measured in cytosolic protein extracts from pancreatic tissue, prepared according to Example 12, by Western blot analysis using polyclonal antibodies sc-371 and sc-945, respectively (Santa Cruz Biotechnology, Santa Cruz, Calif.) using methods known in the art. […] Specifically, IκBα and IκBβ levels were measured in cytosolic protein extracts from pancreatic tissue by Western blot analysis using polyclonal antibodies sc-371 and sc-945, respectively (Santa Cruz Biotechnology, Santa Cruz, Calif.). […] Specifically, proteins in the cytosolic extract were separated by SDS-PAGE at 120 V using precast Tris-glycine gels and Mini-Cell gel apparatus (Novex, San Diego, Calif.). Separated proteins were electrophoretically transferred to polyvinylidene difluoride membrane for 2 hours at 30 V, using a Novex blot module. Nonspecific binding was blocked by overnight incubation of the membrane in 5% (wt/vol) nonfat dry milk in Tris-buffered saline (TBS, pH 7.5). Blots were then incubated for 2 hours at room temperature with primary antibodies in antibody buffer containing 1% (wt/vol) nonfat dry milk in TTBS (0.05% vol/vol Tween 20 in TBS), washed three times with TTBS, and finally incubated for 1 hour with a peroxidase-labeled secondary antibody in the antibody buffer. Blots were developed for visualization using enhanced chemiluminescence detection kit (Pierce Chemical, Rockford, Ill.).

[2] = tested on: IL-6, TNF-α, KC and iNOS mRNA; assay: RT-PCR for pancreatic mRNA expression of inflammatory molecules; format: in vivo; settings: rat
Description: To determine whether the effects of curcumin on NF-κB and AP-1 activation translated into changes in the expression of inflammatory molecules, the effect of curcumin on pancreatic mRNA expression of several cytokines and other inflammatory molecules were measured by methods known in the art. See Blinman T A, et al. (2000); Gukovskaya A S, et al. (1999); Gukovsky I, et al. (1998); Pandol S J, et al. (1999); Vaquero E, et al. (2001); and Zaninovic V, et al. (2000). Briefly, total RNA was obtained from pancreatic tissue with TRI reagent (Molecular Research Center, Cincinnati, Ohio) and its quality was verified by ethidium bromide staining of rRNA bands on a denaturing agarose gel. RNA was reverse-transcribed with the SuperScript II preamplification kit (GIBCO-BRL, Rockville, Md.) and subjected to PCR with the rat gene specific, intron-spanning primers set forth in Target sequences were amplified at 56° C. using the same amount of cDNA for all primer sets. The RT-PCR products were all of expected size, and their identity was confirmed by direct sequencing. Negative controls were performed by omitting the RT step or cDNA template from the PCR amplification. The cycle number was adjusted between 22 (for the housekeeping ARP gene) and 36 cycles (for iNOS) in order to yield visible products within the linear amplification range. […]

NF-κB [3] = assay: CCK-induced NF-κB activation in isolated pancreatic acinar cells (EMSA); format: cell-based, rat
Description: To confirm that the effects of curcumin occur in the pancreatic acinar cell, the effects of curcumin on the activation of NF-κB and AP-1 in vitro in CCK-stimulated pancreatic acini. Pancreatic acini were prepared from rat pancreas using the collagenase digestion method as described by Pandol S J, et al. (1982) J. Biol. Chem. 257:12024–12029, which is herein incorporated by reference, and then incubated at 37° C. in 199 medium (GIBCO, Rockville, Md.) known in the art. See Blinman T A, et al. (2000); Gukovskaya A S, et al. (1997); Gulkovsky I, et al. (1998); and Zaninovic V, et al. (2000).
EMSAs for NF-κB and AP-1 were performed on nuclear proteins extracted from each sample as provided above.
Nuclear protein extracts were prepared by methods known in the art. See Blinman T A, et al. (2000); Gukovskaya A S, et al. (1997); Gukovsky I, et al. (1998); Pandol S J, et al. (1999); Vaquero E, et al. (2001); and Zaninovic V, et al. (2000). Briefly, samples of pancreatic tissue or isolated acini were rinsed in ice-cold PBS and homogenized in hypotonic Buffer A (20 mM β-glycerophosphate, 10 mM HEPES, pH 7.6, 1.5 mM MgCl2, 10 mM KCl, 10 mM Na2MoO4, 0.1 mM Na3VO4, 1 mM dithiothreitol (DTT), 1 mM phenylmethylsulfonyl fluoride (PMSF), 5 μg/ml each of protease inhibitors pepstatin, leupeptin, chymostatin, antipain and aprotinin). […]

NF-κB and AP-1 = settings: various cell types and tissues; cited from earlier work
p38 MAP kinase = p38 MAP kinase (Homo sapiens, UniProt Q16539); settings: various cell types and tissues; cited from earlier work
p38 MAP kinase, sequence (Q16539 whole entry): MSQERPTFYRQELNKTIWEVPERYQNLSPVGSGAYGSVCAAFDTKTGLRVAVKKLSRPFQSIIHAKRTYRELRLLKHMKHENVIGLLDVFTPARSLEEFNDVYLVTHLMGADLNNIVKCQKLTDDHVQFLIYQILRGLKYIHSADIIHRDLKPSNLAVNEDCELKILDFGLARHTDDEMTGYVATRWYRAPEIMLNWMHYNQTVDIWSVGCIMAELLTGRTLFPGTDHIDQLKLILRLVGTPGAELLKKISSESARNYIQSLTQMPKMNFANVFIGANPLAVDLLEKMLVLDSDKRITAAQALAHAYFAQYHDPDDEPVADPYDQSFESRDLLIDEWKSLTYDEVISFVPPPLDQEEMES

COc1cc(/C=C/C(=O)CC(=O)/C=C/c2ccc(O)c(OC)c2)ccc1O [curcumin]
inhibition of intrapancreatic trypsin activation (trypsin; EtOH+CCK model): greater than 50% | inhibition of intrapancreatic trypsin activation (trypsin; cerulein model): greater than 70% | active trypsin versus pancreatitis without curcumin (trypsin; cerulein pancreatitis): significantly lower; also recorded: significantly inhibited | basal level of active pancreatic trypsin (trypsin; ethanol-fed rats, EtOH+CCK model, basal): unaffected | active trypsin versus pancreatitis without curcumin (trypsin; ethanol/CCK pancreatitis): significantly lower; also recorded: significantly inhibited | NF-κB activation in the pancreas (NF-κB [1]; cerulein pancreatitis): inhibits; also recorded: attenuated | NF-κB activity in the pancreas of control rats (NF-κB [1]; control (vehicle-infused) rats treated with curcumin): Virtually no NF-κB activity was detected | NF-κB activation in the pancreas (NF-κB [1]; ethanol/CCK pancreatitis): inhibits | decrease (degradation) of IκBα and IκBβ (IκBα and IκBβ; cerulein pancreatitis, rat): prevented | IκBα and IκBβ levels in control animals (IκBα and IκBβ; control animals): did not change | IκB degradation (IκBα and IκBβ; ethanol/CCK pancreatitis, rat): prevented; also recorded: inhibits | pancreatic expression of IL-6, TNF-α, KC and iNOS ([2]; cerulein pancreatitis): markedly inhibited; also recorded: attenuated | pancreatic expression of IL-6, TNF-α, KC and iNOS ([2]; ethanol/CCK pancreatitis): markedly inhibited; also recorded: attenuated | CCK-induced activation of NF-κB in isolated acinar cells (NF-κB [3]; 1 h with compound, then 0.1 μM CCK 30 min): inhibits; also recorded: abolished; also recorded: blocked; also recorded: attenuates; also recorded: not highly potent | basal NF-κB binding activity in acinar cells (NF-κB [3]; control cells, incubated without CCK): inhibited | activation of NF-κB and AP-1 (NF-κB and AP-1): inhibits | effect on p38 MAP kinase (p38 MAP kinase): no effect
